Our source for the Activity values is ChEMBL document CHEMBL4602626, “Structure activity relationship, 6-modified purine riboside analogues to activate hSTING, stimulator of interferon genes” (Bioorg Med Chem Lett, 2020).

Holding throughout (format): cell-based
Assay [1] addresses Stimulator of interferon genes protein (Homo sapiens) (UniProt Q86WV6). As to the kind of experiment: Activation of human STING expressed in monocytes co-expressing IFN assessed as alkaline phosphatase secretion by SEAP reporter gene assay.
For assay [2] the target is unchanged. As to the kind of experiment: Activation of human STING expressed in monocytes co-expressing IFN assessed as alkaline phosphatase secretion in presence of adenosine deaminase inhibitor erytftro-9-(2-hydroxy-3-nonyl) adenine by SEAP reporter gene assay. (In general: In a reporter assay the amount or activity of a reporter protein is the signal.)
For assay [3] the target is unchanged. The experiment in a line: Activation of human STING expressed in monocytes co-expressing IFN assessed as alkaline phosphatase secretion in presence of adenosine kinase inhibitor 5-iodotubercidin by SEAP reporter gene assay.

Calls of active or inactive are those of the source. The rule behind the calls is not given here.

Sequence of Stimulator of interferon genes protein (Homo sapiens) (Q86WV6 whole entry): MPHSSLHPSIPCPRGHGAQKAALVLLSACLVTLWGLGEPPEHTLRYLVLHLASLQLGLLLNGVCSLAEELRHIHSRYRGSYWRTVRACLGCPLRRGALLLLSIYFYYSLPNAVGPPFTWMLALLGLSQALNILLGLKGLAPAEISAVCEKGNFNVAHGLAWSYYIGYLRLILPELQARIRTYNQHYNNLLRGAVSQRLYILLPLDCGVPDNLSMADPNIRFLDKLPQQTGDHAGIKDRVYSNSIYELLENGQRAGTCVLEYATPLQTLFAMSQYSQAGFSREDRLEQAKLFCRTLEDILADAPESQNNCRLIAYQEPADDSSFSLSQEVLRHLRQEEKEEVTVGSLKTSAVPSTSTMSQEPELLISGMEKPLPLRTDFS

As for `CC(C)CNc1ncnc2c1ncn2[C@@H]1O[C@H](CO)[C@@H](O)[C@H]1O`, the outcome in assay [1] was Active. Still for that read-out and setting: for `CCOc1ncnc2c1ncn2[C@@H]1O[C@H](COC(=O)[C@@H](N)C(C)C)[C@@H](O)[C@H]1O` the value was “Active”. Turning to `CCOc1ncnc2c1ncn2[C@@H]1O[C@H](CO)[C@@H](O)[C@H]1O`, the outcome in assay [1] and in assay [2] was Active. The outcome in assay [3] was inactive. With `CN(C)/C=N/c1ncnc2c1ncn2[C@H]1C[C@H](O)[C@@H](CO)O1`, in assay [1], the result was inactive. On to `CCOc1ncnc2[nH]cnc12`, for which the outcome in assay [1] was inactive. Turning to `CN(C)/C=N/c1nc2c(ncn2[C@@H]2O[C@H](CO)[C@@H](O)[C@H]2O)c(=O)[nH]1`, the result in assay [1] was inactive. For `CCNc1ncnc2c1ncn2[C@@H]1O[C@H](CO)[C@@H](O)[C@H]1O`, in assay [1], the outcome was Active. Turning to `CN(C)/C=N/c1ncnc2c1ncn2[C@@H]1O[C@H](CO)[C@@H](O)[C@H]1O`, the outcome in assay [1] was Active. Consider `CCOc1ncnc2c1ncn2[C@@H]1O[C@H](COC(=O)C(C)C)[C@@H](OC(=O)C(C)C)[C@H]1OC(=O)C(C)C`, for which the result in assay [1] was Active.

Regarding `OC[C@H]1O[C@@H](n2cnc3c(NCc4ccccc4)ncnc32)[C@H](O)[C@@H]1O`, in assay [1], the outcome was Active. Regarding `CCCCC(=O)OC[C@H]1O[C@@H](n2cnc3c(OCC)ncnc32)[C@H](OC(=O)CCCC)[C@@H]1OC(=O)CCCC`, in assay [1], the outcome was Active. `CN(C)/C=N/c1ccn([C@@H]2O[C@H](CO)[C@@H](O)[C@H]2O)c(=O)n1`: the outcome in assay [1] was inactive. `C=CCNc1ncnc2c1ncn2[C@@H]1O[C@H](CO)[C@@H](O)[C@H]1O`: in assay [1], the result was Active.

Turning to `CCOc1ncnc2c1ncn2[C@H]1C[C@H](O)[C@@H](CO)O1`, the result in assay [1] was inactive. With `CCCOc1ncnc2c1ncn2[C@@H]1O[C@H](CO)[C@@H](O)[C@H]1O`, the outcome in assay [1] was Active. The same measure, in the same setting: for `CN(C)CCNc1ncnc2c1ncn2[C@@H]1O[C@H](CO)[C@@H](O)[C@H]1O` the value was “Active”; for `CN(C)/C=N/c1ncnc2[nH]cnc12`, “inactive”.

As to `OC[C@H]1O[C@@H](n2cnc3c(OCC(F)(F)F)ncnc32)[C@H](O)[C@@H]1O`, in assay [1], the outcome was Active. With `CCCCC(=O)OC[C@H]1O[C@@H](n2cnc3c(OCC)ncnc32)[C@H](O)[C@@H]1O`, the outcome in assay [1] was Active. Consider `CCOc1nc(N)nc2c1ncn2[C@@H]1O[C@H](CO)[C@@H](O)[C@H]1O`, for which, in assay [1], the result was inactive. For `OC[C@H]1O[C@@H](n2cnc3c(OCc4ccccc4)ncnc32)[C@H](O)[C@@H]1O`, in assay [1], the outcome was inactive. As to `COCCNc1ncnc2c1ncn2[C@@H]1O[C@H](CO)[C@@H](O)[C@H]1O`, the outcome in assay [1] was Active. In the case of `CC(C)Oc1ncnc2c1ncn2[C@@H]1O[C@H](CO)[C@@H](O)[C@H]1O`, the result in assay [1] was inactive. Still for that read-out and setting: for `COc1ncnc2c1ncn2[C@@H]1O[C@H](CCl)[C@@H](O)[C@H]1O` the value was “inactive”; for `CCOc1ncnc2c1ncn2[C@@H]1O[C@H](COP(=O)(N[C@@H](C)C(=O)OC(C)C)Oc2ccccc2)[C@@H](O)[C@H]1O` (some centres undefined), “Active”. Same read-out and setting: for `OC[C@H]1O[C@@H](n2cnc3c(OCC(F)F)ncnc32)[C@H](O)[C@@H]1O` the value was “Active”. The same measure, in the same setting: as for `OC[C@H]1O[C@@H](n2cnc3c(NCc4ccc(-c5ccccc5)cc4)ncnc32)[C@H](O)[C@@H]1O`, the entry is “Active”.
